Tests used:
[1] = target: T1, human orexin type 2 receptor (Homo sapiens, UniProt O43614); assay: Measurement of orexin type 2 receptor agonist activity (calcium fluorescence, CHO cells forcibly expressing human OX2 receptor); assay type: cell-based; details: compound at 3 μM, DMSO = 0%, orexin A (human) 10 nM = 100%
T1 construct: expressed in transfected cells
T1 sequence (O43614 1-444): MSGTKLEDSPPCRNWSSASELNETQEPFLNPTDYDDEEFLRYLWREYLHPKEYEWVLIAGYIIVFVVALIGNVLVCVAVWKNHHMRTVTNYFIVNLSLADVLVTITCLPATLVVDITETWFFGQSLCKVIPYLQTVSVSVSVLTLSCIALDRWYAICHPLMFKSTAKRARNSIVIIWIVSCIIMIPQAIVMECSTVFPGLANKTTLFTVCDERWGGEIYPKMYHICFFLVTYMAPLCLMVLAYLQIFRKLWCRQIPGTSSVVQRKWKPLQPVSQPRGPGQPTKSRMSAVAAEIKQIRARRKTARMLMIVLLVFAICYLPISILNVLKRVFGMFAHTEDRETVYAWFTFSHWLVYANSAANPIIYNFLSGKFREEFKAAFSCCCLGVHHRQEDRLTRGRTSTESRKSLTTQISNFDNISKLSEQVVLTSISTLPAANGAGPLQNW
How it was run: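 Agonism measured as Fluo-4 calcium fluorescence in CHO-K1 cells stably expressing human OX2 receptor, loaded 30 min at 37° C then 30 min at room temperature with probenecid. Signal recorded about 2 min 40 sec after compound; activity (%) normalised to DMSO (0%) and 10 nM human orexin A (100%).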

SD rats = assay: Evaluation of wake-promoting effects in SD rats (EEG/EMG); assay type: in vivo, rat; details: s.c., 10 mg/kg, at ZT5, 3 hr after administration
Method: The wake-promoting effects were evaluated by measuring the electroencephalogram (EEG) and electromyogram (EMG) in SD rats (Crl:CD(SD), CHARLES RIVER LABORATORIES JAPAN, Kanagawa, Japan.) using chronic experiment telemetry automatic measurement system (PhysioTel® and PONEMAH™, Data Sciences International Inc., Minnesota, U.S.A.). Under pentobarbital sodium anesthesia (50 mg/kg, intraperitoneal, Somnopentyl®, Kyoritsu Seiyaku, Tokyo, Japan), […] male SD rats were surgically implanted with a transmitter. Bilateral EEG leads were positioned at the parietal area in contact with the dura and fixed to the cranium with dental cement. Bilateral EMG leads were fixed to the back cervical muscles. The transmitter was implanted under the skin of the back, and the head skin was sutured. After recovery for at least 1 week, the cortical EEG and EMG signals in SD rats were recorded using a high-end data acquisition and real-time analysis system (PONEMAH™). The signals were automatically scored in 4 sec epochs by a sleep scoring system (SleepSign®, Kissei Comtec Co., Ltd.). Test compound (1 or 10 mg/kg, Table 3) dissolved in a mixed solution containing 10% DMSO, 10% Cremophor EL, 20% PEG400 and 60% H2O, or vehicle (i.e., a mixed solution containing 10% DMSO, 10% Cremophor EL, 20% PEG400 and 60% H2O) was administered subcutaneously (s.c.) to the SD rats at zeitgeber time (ZT) 5 (when the start time of the light cycle was ZT0) in a volume of 5 mL/kg. The EEG and EMG recordings were performed for 3 hr after the compound administration. The time spent in wakefulness for 3 hr after administration (% of vehicle treatment) was calculated by using SleepSign.

CC#CC1CCC(OCC2C(NS(C)(=O)=O)CCc3ccc(C)c(=O)n32)CC1 [Example 146, rel-N-[(3S,4R)-7-methyl-6-oxo-4-({[(1s,4S)-4-(prop-1-yn-1-yl)cyclohexyl]oxy}methyl)-1,3,4,6-tetrahydro-2H-quinolizin-3-yl]methanesulfonamide]
OX2R agonist activity (3 μM, %) [1]: 104%
Wakefulness time (% of vehicle treatment) (Mean, n = 2) (SD rats): 166.75 % of vehicle treatment

Reference: patent US12448377B2, “Heterocyclic compound” (Takeda Pharmaceutical Company Limited, priority 2019, dated 2025)
